Reference: PubChem BioAssay (NCI)
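Briefly, cells in 96-well plates were exposed to five compound concentrations for 48 h, and endpoints were estimated by linear interpolation. TGI is the concentration that stops growth completely.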

Experiments:
Test in all cases: inhibition of tumour cell growth, NCI panel, 48 h
MDA-N = tested on: MDA-N
NCI-H460 lung = tested on: NCI-H460 lung
NCI-H522 lung = tested on: NCI-H522 lung
K-562 leukemia = tested on: K-562 leukemia
IGROV1 ovarian = tested on: IGROV1 ovarian
MCF7 breast = tested on: MCF7 breast
HOP-92 NSCLC = tested on: HOP-92 NSCLC
HS 578T breast = tested on: HS 578T breast
CAKI-1 renal = tested on: CAKI-1 renal
NCI/ADR-RES ovarian = tested on: NCI/ADR-RES ovarian
RPMI-8226 leukemia = tested on: RPMI-8226 leukemia
MDA-MB-231 breast = tested on: MDA-MB-231 breast
SF-295 CNS = tested on: SF-295 CNS
SF-539 CNS = tested on: SF-539 CNS
UO-31 renal = tested on: UO-31 renal
A549 NSCLC = tested on: A549 NSCLC
BT-549 breast = tested on: BT-549 breast
CCRF-CEM leukemia = tested on: CCRF-CEM leukemia
SNB-19 CNS = tested on: SNB-19 CNS
HOP-62 NSCLC = tested on: HOP-62 NSCLC
NCI-H226 lung = tested on: NCI-H226 lung
SK-MEL-28 melanoma = tested on: SK-MEL-28 melanoma
UACC-62 melanoma = tested on: UACC-62 melanoma
SR leukemia = tested on: SR leukemia
SK-OV-3 ovarian = tested on: SK-OV-3 ovarian
HL-60(TB) leukemia = tested on: HL-60(TB) leukemia
EKVX NSCLC = tested on: EKVX NSCLC
SK-MEL-2 melanoma = tested on: SK-MEL-2 melanoma
COLO 205 colon = tested on: COLO 205 colon
OVCAR-4 ovarian = tested on: OVCAR-4 ovarian
786-0 renal = tested on: 786-0 renal
OVCAR-8 ovarian = tested on: OVCAR-8 ovarian
OVCAR-5 ovarian = tested on: OVCAR-5 ovarian
RXF 393 renal = tested on: RXF 393 renal
SN12C renal = tested on: SN12C renal
TK-10 renal = tested on: TK-10 renal
NCI-H23 lung = tested on: NCI-H23 lung
MALME-3M melanoma = tested on: MALME-3M melanoma
DU-145 prostate = tested on: DU-145 prostate
T-47D breast = tested on: T-47D breast
OVCAR-3 ovarian = tested on: OVCAR-3 ovarian
A498 renal = tested on: A498 renal
LOX IMVI melanoma = tested on: LOX IMVI melanoma
U251 CNS = tested on: U251 CNS
HCC-2998 colon = tested on: HCC-2998 colon
SW-620 colon = tested on: SW-620 colon
PC-3 prostate = tested on: PC-3 prostate
M14 melanoma = tested on: M14 melanoma
KM12 colon = tested on: KM12 colon
SK-MEL-5 melanoma = tested on: SK-MEL-5 melanoma
UACC-257 melanoma = tested on: UACC-257 melanoma
MDA-MB-435 = tested on: MDA-MB-435
HCT-116 colon = tested on: HCT-116 colon
HCT-15 colon = tested on: HCT-15 colon
HT29 colon = tested on: HT29 colon
ACHN renal = tested on: ACHN renal
SF-268 CNS = tested on: SF-268 CNS
SNB-75 CNS = tested on: SNB-75 CNS
MOLT-4 leukemia = tested on: MOLT-4 leukemia

[N-]=[N+]=NCC(=O)c1c[nH]c(=O)[nH]c1=O
TGI (MDA-N): > 100 µM
TGI (NCI-H460 lung): > 100 µM
TGI (NCI-H522 lung): > 100 µM
TGI (K-562 leukemia): > 100 µM
TGI (IGROV1 ovarian): > 100 µM
TGI (MCF7 breast): > 100 µM
TGI (HOP-92 NSCLC): > 100 µM
TGI (HS 578T breast): > 100 µM
TGI (CAKI-1 renal): > 100 µM
TGI (NCI/ADR-RES ovarian): > 100 µM
TGI (RPMI-8226 leukemia): > 100 µM
TGI (MDA-MB-231 breast): > 100 µM
TGI (SF-295 CNS): > 100 µM
TGI (SF-539 CNS): > 100 µM
TGI (UO-31 renal): > 100 µM
TGI (A549 NSCLC): > 100 µM
TGI (BT-549 breast): > 100 µM
TGI (CCRF-CEM leukemia): > 100 µM
TGI (SNB-19 CNS): > 100 µM
TGI (HOP-62 NSCLC): > 100 µM
TGI (NCI-H226 lung): > 100 µM
TGI (SK-MEL-28 melanoma): > 100 µM
TGI (UACC-62 melanoma): > 100 µM
TGI (SR leukemia): > 100 µM
TGI (SK-OV-3 ovarian): > 100 µM
TGI (HL-60(TB) leukemia): > 100 µM
TGI (EKVX NSCLC): > 100 µM
TGI (SK-MEL-2 melanoma): > 100 µM
TGI (COLO 205 colon): > 100 µM
TGI (OVCAR-4 ovarian): > 100 µM
TGI (786-0 renal): > 100 µM
TGI (OVCAR-8 ovarian): > 100 µM
TGI (OVCAR-5 ovarian): > 100 µM
TGI (RXF 393 renal): > 100 µM
TGI (SN12C renal): > 100 µM
TGI (TK-10 renal): > 100 µM
TGI (NCI-H23 lung): > 100 µM
TGI (MALME-3M melanoma): > 100 µM
TGI (DU-145 prostate): > 100 µM
TGI (T-47D breast): > 100 µM
TGI (OVCAR-3 ovarian): > 100 µM
TGI (A498 renal): > 100 µM
TGI (LOX IMVI melanoma): > 100 µM
TGI (U251 CNS): > 100 µM
TGI (HCC-2998 colon): > 100 µM
TGI (SW-620 colon): > 100 µM
TGI (PC-3 prostate): > 100 µM
TGI (M14 melanoma): > 100 µM
TGI (KM12 colon): > 100 µM
TGI (SK-MEL-5 melanoma): > 100 µM
TGI (UACC-257 melanoma): > 100 µM
TGI (MDA-MB-435): > 100 µM
TGI (HCT-116 colon): > 100 µM
TGI (HCT-15 colon): > 100 µM
TGI (HT29 colon): > 100 µM
TGI (ACHN renal): > 100 µM
TGI (SF-268 CNS): > 100 µM
TGI (SNB-75 CNS): > 100 µM

C=C1CC2(C)CCC(OC(=O)C3(C)OC3C)C(C)(OC(C)=O)C2CC1=C(C)C (centres undefined)
TGI (MDA-N): > 100 µM
TGI (NCI-H460 lung): > 100 µM
TGI (NCI-H522 lung): > 100 µM
TGI (K-562 leukemia): > 100 µM
TGI (IGROV1 ovarian): > 100 µM
TGI (MCF7 breast): > 100 µM
TGI (HOP-92 NSCLC): > 100 µM
TGI (HS 578T breast): > 100 µM
TGI (NCI/ADR-RES ovarian): > 100 µM
TGI (RPMI-8226 leukemia): > 100 µM
TGI (MDA-MB-231 breast): > 100 µM
TGI (SF-295 CNS): > 100 µM
TGI (SF-539 CNS): > 100 µM
TGI (UO-31 renal): > 100 µM
TGI (A549 NSCLC): > 100 µM
TGI (BT-549 breast): > 100 µM
TGI (CCRF-CEM leukemia): > 100 µM
TGI (SNB-19 CNS): > 100 µM
TGI (HOP-62 NSCLC): > 100 µM
TGI (SK-MEL-28 melanoma): > 100 µM
TGI (UACC-62 melanoma): > 100 µM
TGI (SR leukemia): > 100 µM
TGI (SK-OV-3 ovarian): > 100 µM
TGI (HL-60(TB) leukemia): 76.1 µM
TGI (EKVX NSCLC): > 100 µM
TGI (SK-MEL-2 melanoma): > 100 µM
TGI (COLO 205 colon): > 100 µM
TGI (MOLT-4 leukemia): > 100 µM
TGI (OVCAR-4 ovarian): > 100 µM
TGI (OVCAR-8 ovarian): > 100 µM
TGI (OVCAR-5 ovarian): > 100 µM
TGI (RXF 393 renal): > 100 µM
TGI (SN12C renal): > 100 µM
TGI (TK-10 renal): > 100 µM
TGI (NCI-H23 lung): > 100 µM
TGI (MALME-3M melanoma): > 100 µM
TGI (DU-145 prostate): > 100 µM
TGI (T-47D breast): > 100 µM
TGI (OVCAR-3 ovarian): > 100 µM
TGI (A498 renal): > 100 µM
TGI (LOX IMVI melanoma): > 100 µM
TGI (U251 CNS): > 100 µM
TGI (HCC-2998 colon): > 100 µM
TGI (SW-620 colon): > 100 µM
TGI (PC-3 prostate): > 100 µM
TGI (M14 melanoma): > 100 µM
TGI (KM12 colon): > 100 µM
TGI (SK-MEL-5 melanoma): > 100 µM
TGI (UACC-257 melanoma): > 100 µM
TGI (MDA-MB-435): > 100 µM
TGI (HCT-116 colon): > 100 µM
TGI (HCT-15 colon): > 100 µM
TGI (HT29 colon): > 100 µM
TGI (ACHN renal): > 100 µM
TGI (SF-268 CNS): > 100 µM
TGI (SNB-75 CNS): > 100 µM
